{"source": "paper PMC8426238", "about": "“Synthesis and preclinical evaluation of [^11C]MTP38 as a novel PET ligand for phosphodiesterase 7 in the brain” (European Journal of Nuclear Medicine and Molecular Imaging, 2021)", "assay_in_all_cases": "off-target screen panel", "assay_type_in_all_cases": "binding", "key": {"[1]": {"target": "T1, Transporter, Norepinephrine (NET) (Homo sapiens, UniProt P23975)", "T1 construct": "purchased Eurofins Panlabs Discovery Services (Taiwan)", "T1 sequence (P23975 whole entry)": "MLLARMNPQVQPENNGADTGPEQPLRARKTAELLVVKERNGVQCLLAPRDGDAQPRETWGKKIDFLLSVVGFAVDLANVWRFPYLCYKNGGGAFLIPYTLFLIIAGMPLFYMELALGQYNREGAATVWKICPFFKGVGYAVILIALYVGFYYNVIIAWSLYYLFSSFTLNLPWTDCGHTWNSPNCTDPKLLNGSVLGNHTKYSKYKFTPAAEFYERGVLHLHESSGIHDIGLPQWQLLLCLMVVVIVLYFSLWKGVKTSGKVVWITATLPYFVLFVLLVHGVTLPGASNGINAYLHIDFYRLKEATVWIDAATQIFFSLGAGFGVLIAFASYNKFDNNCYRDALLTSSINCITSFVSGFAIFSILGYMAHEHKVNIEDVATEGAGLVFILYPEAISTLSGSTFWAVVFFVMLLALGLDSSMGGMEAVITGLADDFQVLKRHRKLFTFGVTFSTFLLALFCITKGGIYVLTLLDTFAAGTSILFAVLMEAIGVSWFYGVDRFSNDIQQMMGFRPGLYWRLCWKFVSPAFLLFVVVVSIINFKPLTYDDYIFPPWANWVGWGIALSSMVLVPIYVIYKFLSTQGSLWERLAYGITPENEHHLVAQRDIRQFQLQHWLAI", "conditions": "Human recombinant, [^125I]RTI-55"}, "GABAA, Muscimol, Central": {"test_system": "GABAA, Muscimol, Central", "conditions": "Rat brain (minus cerebellum), [^3H]Muscimol"}, "Phorbol Ester": {"test_system": "Phorbol Ester", "conditions": "Mouse brain, [^3H]PDBu"}, "Muscarinic M1": {"target": "T2, Muscarinic M1 (Homo sapiens, UniProt P11229)", "T2 construct": "purchased Eurofins Panlabs Discovery Services (Taiwan)", "T2 sequence (P11229 whole entry)": "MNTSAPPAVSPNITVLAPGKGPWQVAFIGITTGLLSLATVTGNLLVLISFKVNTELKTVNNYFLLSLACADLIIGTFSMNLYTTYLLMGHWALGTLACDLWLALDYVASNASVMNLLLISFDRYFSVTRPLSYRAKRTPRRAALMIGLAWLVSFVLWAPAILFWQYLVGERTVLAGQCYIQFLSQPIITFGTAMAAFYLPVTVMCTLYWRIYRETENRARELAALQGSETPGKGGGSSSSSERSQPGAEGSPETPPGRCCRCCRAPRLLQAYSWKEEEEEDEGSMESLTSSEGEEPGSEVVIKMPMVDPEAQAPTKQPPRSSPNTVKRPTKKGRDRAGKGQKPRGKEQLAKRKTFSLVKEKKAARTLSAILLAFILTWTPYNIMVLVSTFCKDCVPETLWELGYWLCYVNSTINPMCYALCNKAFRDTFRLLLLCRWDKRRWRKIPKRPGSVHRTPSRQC", "conditions": "Human recombinant, [^3H]N-Methylscopolamine"}, "Purinergic P2Y": {"test_system": "Purinergic P2Y", "conditions": "Rat brain, [^35S]ATP-αS"}, "Transporter, GABA": {"test_system": "Transporter, GABA", "conditions": "Rat cerebral cortex, [^3H]GABA"}, "Adenosine A2A": {"target": "T3, Adenosine A2A (Homo sapiens, UniProt P29274)", "T3 construct": "purchased Eurofins Panlabs Discovery Services (Taiwan)", "T3 sequence (P29274 whole entry)": "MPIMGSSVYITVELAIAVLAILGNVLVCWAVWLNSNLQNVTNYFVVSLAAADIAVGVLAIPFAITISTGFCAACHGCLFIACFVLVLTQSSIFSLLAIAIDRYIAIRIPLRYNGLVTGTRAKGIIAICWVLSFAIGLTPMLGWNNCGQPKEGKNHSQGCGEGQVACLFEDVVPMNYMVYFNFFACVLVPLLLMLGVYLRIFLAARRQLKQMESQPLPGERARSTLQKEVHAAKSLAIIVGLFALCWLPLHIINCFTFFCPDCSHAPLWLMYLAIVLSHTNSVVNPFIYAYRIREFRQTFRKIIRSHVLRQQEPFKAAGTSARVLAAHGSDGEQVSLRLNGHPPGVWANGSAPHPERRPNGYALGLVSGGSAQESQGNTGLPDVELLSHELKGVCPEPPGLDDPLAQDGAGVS", "conditions": "Human recombinant, [^3H]CGS-21680"}, "Glutamate, NMDA, Agonism": {"test_system": "Glutamate, NMDA, Agonism", "conditions": "Rat cerebral cortex, [^3H]CGP-39653"}, "PDE4": {"test_system": "PDE4", "conditions": "Rat brain, [^3H]Rolipram"}}, "data": [{"smiles": "C[C@@H]1CC[C@H](C)N(c2nnc3c(N)ncc(C#N)n23)C1", "note": "(relative stereo) [MTP38, 8-amino-3-(2S*,5R*-dimethyl-1-piperidyl)-[1,2,4]triazolo[4,3-a]pyrazine-5-carbonitrile]", "values": [{"measurement": "inhibition at 1 µM", "setting": "[1]", "result": 6, "unit": "%"}, {"measurement": "Inhibition (%) at 1 μM", "setting": "GABAA, Muscimol, Central", "result": -10, "unit": "%"}, {"measurement": "Inhibition (%) at 1 μM", "setting": "Phorbol Ester", "result": -7, "unit": "%"}, {"measurement": "inhibition at 1 µM", "setting": "Muscarinic M1", "result": -20, "unit": "%"}, {"measurement": "Inhibition (%) at 1 μM", "setting": "Purinergic P2Y", "result": -20, "unit": "%"}, {"measurement": "Inhibition (%) at 1 μM", "setting": "Transporter, GABA", "result": -2, "unit": "%"}, {"measurement": "inhibition at 1 µM", "setting": "Adenosine A2A", "result": 4, "unit": "%"}, {"measurement": "Inhibition (%) at 1 μM", "setting": "Glutamate, NMDA, Agonism", "result": -3, "unit": "%"}, {"measurement": "Inhibition (%) at 1 μM", "setting": "PDE4", "result": 74, "unit": "%"}]}]}
